# Data from paper PMC8457056, “Remodeling of the Fibrillation Pathway of α‐Synuclein by Interaction with Antimicrobial Peptide LL‐III” (Chemistry (Weinheim an Der Bergstrasse, Germany), 2021).
# What was measured:
# α‐Syn = assay: atomic force microscopy of α-Syn fibrils; assay type: biochemical, human; conditions: 20 μM α-Syn, dried on mica, 20 mM sodium acetate, pH 5.0, room temperature
# Description: To verify inhibition of α‐Syn fibril formation upon addition of LL‐III, atomic force microscopy (AFM) experiments were carried out. To this end, a 20 μM solution of α‐Syn in the absence and in the presence of LL‐III was dried on a mica surface and AFM pictures were recorded. Under such conditions, liquid droplets could not be detected. In the absence of LL‐III, short fibril‐like structures were observed (Figure S3).
# The lyophilized powders of the labeled and unlabeled LL-III peptide were purchased from GenScript, Germany.
# The sequence of the LL-III peptide is NH2-VNWKKIL GKIIKVVK -CONH2. In th e labeled peptide, the fluorophore 6-carboxyfluorescein (FAM) was covalently attached to the N-terminus of the peptide. […]
# The expression and purification of α-synuclein (α-Syn) was carried out as described before.[1,2] […] A single colony was picked and inoculated into 100 m l LB medium containing 150 μg/m l ampicillin and grown at 37°C with shaking at 250 rpm until the absorbance at 600 nm reached 0.8. […]
# Phase-contrast light and fluorescence microscopy
# The light and fluorescence microscopy experiments were performed using an Eclipse TE2000- U (Nikon Inc.) op-tical microscope with a Nikon Plan Fluor 20x objective (NA 0.45 WD 7.4) coupled to an TIS DMK 23UX249 camera. […] Fluorescence microscopy experiments were performed using 6-carboxyfluorescein- l abel ed LL- III (FAM-LL-III) exciting at 488 nm. […]
# net charge of LL-III = assay type: physicochemical
substance,measurement,setting,value
NH2-VNWKKIL GKIIKVVK -CONH2 [LL‐III],fibrils by AFM,α‐Syn; 200 μM LL-III,some fibrils of smaller size were still visible after drying
same,fibrils by AFM,α‐Syn; 500 μM LL-III,fibrillar structures could no longer be detected
same,net charge at pH 5.0,net charge of LL-III; also at the lower pH of pH 5.0,+6
same,net charge at pH 7.4,net charge of LL-III; pH 7.4,+6
